From patent US20100068204A1, “4-ARYLOXYQUINOLIN-2(1H)-ONES AS MTOR KINASE AND PI3 KINASE INHIBITORS, FOR USE AS ANTI-CANCER AGENTS” (Wyeth, priority 2008, published 2010)

Experiments:
[1] = tested on: MDA468 breast tumor cells; assay: In vitro cell growth assay (MTS), MDA468; assay type: cell-based, human; conditions: three days after drug treatment
Method: (§1) Cell lines used were human adenocarcinoma (LoVo), […], prostate (LNCap), breast (MDA468, MCF7), colon (HCT116), renal (HTB44 A498), and ovarian (OVCAR3) tumor cell lines. The tumor cells were plated in 96-well culture plates at approximately 3000 cells per well. One day following plating, various concentrations of inhibitors in DMSO were added to cells (final DMSO concentration in cell assays was 0.25%). Three days after drug treatment, viable cell densities were determined by cell mediated metabolic conversion of the dye MTS, a well-established indicator of cell proliferation in vitro. Cell growth assays were performed using kits purchased from Promega Corporation (Madison, Wis.), following the protocol provided by the vendor. Measuring absorbance at 490 nm generated MTS assay results. Compound effect on cell proliferation was assessed relative to untreated control cell growth.

PI3Kα = PI3Kα (Homo sapiens, UniProt P42336); assay: PI3Kα fluorescence polarization assay; assay type: biochemical; conditions: 20 μM PIP2, 25 μM ATP
Method: The reaction buffer was 20 mM HEPES pH7.5, 2 mM MgCl2, 0.05% CHAPS, and 0.01% βME (added fresh). The substrate solution was 40 μM PIP2 (diC8, Echelon, Salt Lake City Utah cat #P-4508, 1 mM in water) and 50 μM ATP in the reaction buffer. Nunc 384-well black polypropylene fluorescent plates were used for PI3K assays. The assay is run by putting 9.5 μl of freshly diluted enzyme in the reaction buffer per well, adding 0.5 μl of diluted drug or DMSO, and mixing. Then 10 μl of the substrate solution is added to each well to start the reaction. A final concentration of 20 μM PIP2 and 25 μM ATP in the reaction was used. Reactions were allowed to proceed for 30-60 minutes at room temperature. After 30-60 minutes, 20 μl of a solution of 10 nM TAMRA detector (Red detector probe-Echelon) and 2.5 uM of GST-murine GRP (1.5 mg/ml in 17% glycerol) was added per well to stop the reaction. The resulting solution was mixed well and allowed to stand for 90-110 minutes before reading plate. Assay Plates were read on Perkin-Elmer Envision plate readers with appropriate filters for Tamra [BODIPY-TMRI(1,3,4,5)P4]. Data obtained were used to calculate enzymatic activity and enzyme inhibition by inhibitor compounds. It is important to keep Red probe solutions dark. This procedure is adapted from Echelon Biosciences Inc procedure for their PI3-Kinase fluorescence polarization activity Assay kit Product number K-1100.

[2] = tested on: LNCap prostate tumor cells; assay: In vitro cell growth assay (MTS), LNCap; assay type: cell-based, human; conditions: three days after drug treatment
Method: as §1

human TOR (FLAG-TOR) = human TOR (FLAG-TOR) (Homo sapiens, UniProt P42345); assay: mTOR enzyme assay (DELFIA format, purified enzyme); assay type: biochemical; conditions: 800 ng/ml FLAG-TOR, 100 μM ATP, 1.25 μM His6-S6K; read-out: mTOR Kinase IC50

PI3Kα, sequence (P42336 whole entry, species assumed): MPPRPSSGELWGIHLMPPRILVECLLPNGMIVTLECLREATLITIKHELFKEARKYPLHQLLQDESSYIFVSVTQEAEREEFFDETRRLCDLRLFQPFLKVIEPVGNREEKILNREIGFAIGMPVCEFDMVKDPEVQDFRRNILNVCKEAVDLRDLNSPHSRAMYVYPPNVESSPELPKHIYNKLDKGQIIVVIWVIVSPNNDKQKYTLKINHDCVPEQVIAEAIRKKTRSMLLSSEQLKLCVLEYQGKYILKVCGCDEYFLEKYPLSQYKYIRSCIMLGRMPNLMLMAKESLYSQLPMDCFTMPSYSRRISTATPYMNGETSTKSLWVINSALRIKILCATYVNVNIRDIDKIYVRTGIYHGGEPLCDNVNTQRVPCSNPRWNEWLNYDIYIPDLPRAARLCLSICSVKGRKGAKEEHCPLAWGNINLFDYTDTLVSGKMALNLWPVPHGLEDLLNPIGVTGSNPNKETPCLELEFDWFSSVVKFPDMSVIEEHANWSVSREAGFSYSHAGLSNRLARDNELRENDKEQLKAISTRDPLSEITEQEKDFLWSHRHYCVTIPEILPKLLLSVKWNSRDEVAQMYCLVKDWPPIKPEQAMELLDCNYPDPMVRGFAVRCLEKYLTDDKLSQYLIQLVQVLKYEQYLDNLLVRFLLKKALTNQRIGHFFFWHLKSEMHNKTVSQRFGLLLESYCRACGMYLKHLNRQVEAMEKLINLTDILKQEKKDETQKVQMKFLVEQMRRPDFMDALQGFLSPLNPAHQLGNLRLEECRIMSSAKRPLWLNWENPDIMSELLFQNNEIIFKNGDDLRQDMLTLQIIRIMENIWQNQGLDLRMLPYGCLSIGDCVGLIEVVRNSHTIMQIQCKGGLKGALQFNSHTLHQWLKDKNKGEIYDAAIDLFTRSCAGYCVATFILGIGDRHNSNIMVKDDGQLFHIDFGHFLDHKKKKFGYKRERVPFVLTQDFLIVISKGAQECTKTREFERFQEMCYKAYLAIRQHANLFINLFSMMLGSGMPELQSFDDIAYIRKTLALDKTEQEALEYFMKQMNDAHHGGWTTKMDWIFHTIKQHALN
PI3Kα, sequence (P27986 whole entry partner, species assumed): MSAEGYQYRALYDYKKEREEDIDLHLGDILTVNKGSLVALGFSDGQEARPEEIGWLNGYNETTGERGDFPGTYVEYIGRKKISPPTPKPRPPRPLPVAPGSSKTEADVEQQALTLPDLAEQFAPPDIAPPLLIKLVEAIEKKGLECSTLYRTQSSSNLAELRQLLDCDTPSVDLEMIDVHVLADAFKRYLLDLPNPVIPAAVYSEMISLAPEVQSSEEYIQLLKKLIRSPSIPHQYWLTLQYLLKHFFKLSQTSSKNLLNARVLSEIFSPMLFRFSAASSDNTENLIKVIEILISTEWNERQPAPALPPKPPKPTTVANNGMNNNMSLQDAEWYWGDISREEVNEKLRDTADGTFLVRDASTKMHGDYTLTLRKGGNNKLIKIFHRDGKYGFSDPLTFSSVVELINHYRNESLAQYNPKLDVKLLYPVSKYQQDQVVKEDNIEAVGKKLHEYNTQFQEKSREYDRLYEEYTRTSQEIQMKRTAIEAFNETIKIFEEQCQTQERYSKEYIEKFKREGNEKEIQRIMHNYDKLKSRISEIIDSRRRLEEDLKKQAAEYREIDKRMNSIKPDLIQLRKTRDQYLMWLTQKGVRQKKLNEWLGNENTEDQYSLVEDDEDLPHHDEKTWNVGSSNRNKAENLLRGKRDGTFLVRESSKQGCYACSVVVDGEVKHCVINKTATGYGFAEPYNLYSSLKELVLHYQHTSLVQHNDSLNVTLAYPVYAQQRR

IC50 ([1]; Homo sapiens, 72 h) | IC50 (PI3Kα) | IC50 ([2]; Homo sapiens, LNCaP, 72 h) | IC50 (human TOR (FLAG-TOR)) | IC50 [1] | IC50 [2] | SMILES
8 µM | 13 µM | 3.5 µM | 0.06 µM | – | – | O=c1cc(Oc2cccc(NCc3ccc(Cl)nc3)c2)c2ccccc2[nH]1
– | > 10 µM | 35 µM | 0.12 µM | – | – | O=c1cc(Oc2cccc(NCc3ccsc3)c2)c2ccccc2[nH]1
– | > 10 µM | 4 µM | 0.07 µM | – | – | Nc1ncccc1CNc1cccc(Oc2cc(=O)[nH]c3ccccc23)c1
– | > 10 µM | 4 µM | 0.08 µM | – | – | O=c1cc(Oc2cccc(NCc3ccc(-n4ccnc4)cc3)c2)c2ccccc2[nH]1
60 µM | 3.94 µM | 60 µM | – | – | – | O=c1cc(Oc2ccccc2)c2cc(-c3ccncc3)ccc2[nH]1
60 µM | > 10 µM | 9.3 µM | 0.3 µM | – | – | COc1cccc(Oc2cc(=O)[nH]c3ccccc23)c1
– | 0.308 µM | – | > 20 µM | – | – | O=c1cc(Oc2ccccc2)c2ccc(Cl)cc2[nH]1
27 µM | 2.22 µM | 7.5 µM | 0.16 µM | – | – | Nc1ccc(Oc2cc(=O)[nH]c3ccccc23)cc1
– | 7.28 µM | – | 6 µM | – | – | CC(=O)Nc1ccc(Oc2cc(=O)[nH]c3ccccc23)cc1
– | 8.23 µM | – | 8.2 µM | – | – | O=c1cc(Oc2ccccc2)c2cc(-c3ccccc3)ccc2[nH]1
– | > 10 µM | – | > 20 µM | – | – | O=c1cc(Oc2ccccc2)c2cc(Br)ccc2[nH]1
> 60 µM | 2.57 µM | > 60 µM | > 20 µM | – | – | Nc1ccc2[nH]c(=O)cc(Oc3ccccc3)c2c1
27 µM | 1.17 µM | 7.5 µM | 16.5 µM | – | – | O=c1cc(Oc2ccccc2)c2cc(N3CCOCC3)ccc2[nH]1
4.5 µM | 6.96 µM | > 60 µM | 7.3 µM | – | – | O=c1cc(Oc2ccccc2)c2cc(-c3ccoc3)ccc2[nH]1
50 µM | 4.11 µM | > 60 µM | 2.2 µM | – | – | O=c1cc(Oc2ccc(Br)cc2)c2ccccc2[nH]1
> 60 µM | 7.91 µM | 8 µM | 2 µM | – | – | Cc1ccccc1Oc1cc(=O)[nH]c2ccccc12
> 60 µM | 4.68 µM | > 60 µM | 9.1 µM | – | – | COc1ccccc1Oc1cc(=O)[nH]c2ccccc12
> 60 µM | 5.39 µM | > 60 µM | > 20 µM | – | – | O=c1cc(Oc2ccccc2)c2ccc(Br)cc2[nH]1
> 60 µM | 0.938 µM | > 60 µM | > 20 µM | – | – | O=c1cc(Oc2ccc(-c3ccccc3)cc2)c2ccccc2[nH]1
16.6 µM | 3.29 µM | 2.15 µM | 1.75 µM | – | – | O=c1cc(Oc2ccc(-c3cccnc3)cc2)c2ccccc2[nH]1
60 µM | 0.778 µM | 2 µM | > 20 µM | – | – | Nc1ccc(-c2ccc(Oc3cc(=O)[nH]c4ccccc34)cc2)cc1
> 60 µM | 2.51 µM | > 60 µM | > 20 µM | – | – | O=c1cc(Oc2ccc(-c3ccsc3)cc2)c2ccccc2[nH]1
> 60 µM | > 10 µM | > 60 µM | > 20 µM | – | – | CC(=O)Nc1ccc2[nH]c(=O)cc(Oc3ccccc3)c2c1
> 60 µM | 1.94 µM | > 60 µM | > 20 µM | – | – | O=c1cc(Oc2ccc(-c3ccoc3)cc2)c2ccccc2[nH]1
> 60 µM | 1.66 µM | 13 µM | 1.85 µM | – | – | CC(=O)c1ccc(Oc2cc(=O)[nH]c3ccccc23)cc1
48 µM | 2.09 µM | 5.5 µM | 7.6 µM | – | – | N#Cc1ccc(Oc2cc(=O)[nH]c3ccccc23)cc1
49 µM | 2.48 µM | > 60 µM | 0.96 µM | – | – | O=c1cc(Oc2ccc(Cl)cc2)c2ccccc2[nH]1

IC50 ([1]; Homo sapiens, 72 h) | IC50 (PI3Kα) | IC50 ([2]; Homo sapiens, LNCaP, 72 h) | IC50 (human TOR (FLAG-TOR)) | IC50 [1] | IC50 [2] | SMILES
> 60 µM | 0.375 µM | > 60 µM | 19 µM | – | – | O=c1cc(Oc2ccccc2)c2cc(-c3cn[nH]c3)ccc2[nH]1
> 60 µM | 8.69 µM | > 60 µM | 1.35 µM | – | – | O=c1cc(Oc2cccc(C(F)(F)F)c2)c2ccccc2[nH]1
> 60 µM | > 10 µM | > 60 µM | > 20 µM | – | – | O=c1cc(Oc2ccc(OC(F)(F)F)cc2)c2ccccc2[nH]1
22 µM | 5.8 µM | 4.2 µM | 0.3 µM | – | – | N#CCc1cccc(Oc2cc(=O)[nH]c3ccccc23)c1
40 µM | 8 µM | 7 µM | 0.95 µM | – | – | O=c1cc(Oc2ccccc2Br)c2ccccc2[nH]1
60 µM | 8 µM | 7 µM | 0.75 µM | – | – | O=c1cc(Oc2cccc(OC(F)(F)F)c2)c2ccccc2[nH]1
> 60 µM | 2.31 µM | > 60 µM | > 20 µM | – | – | O=c1cc(Oc2ccc(C(F)(F)F)cc2)c2ccccc2[nH]1
20 µM | 3.66 µM | 7 µM | 0.43 µM | – | – | O=c1cc(Oc2cccc(-c3cccnc3)c2)c2ccccc2[nH]1
28 µM | 0.106 µM | 2.5 µM | 0.15 µM | – | – | Nc1cccc(Oc2cc(=O)[nH]c3ccccc23)c1
0.3 µM | 4.32 µM | 6.2 µM | 0.35 µM | – | – | O=c1cc(Oc2cccc(-c3ccoc3)c2)c2ccccc2[nH]1
60 µM | 0.63 µM | 30 µM | 0.63 µM | – | – | O=c1cc(Oc2cccc(-c3ccsc3)c2)c2ccccc2[nH]1
> 60 µM | 2.28 µM | 1.3 µM | 1.98 µM | – | – | Cn1cc(-c2ccc(Oc3cc(=O)[nH]c4ccccc34)cc2)cn1
> 60 µM | > 10 µM | 60 µM | 0.11 µM | – | – | O=c1cc(Oc2cccc(Br)c2)c2ccccc2[nH]1
2.9 µM | 3.9 µM | 8 µM | 0.3 µM | – | – | O=c1cc(Oc2cccc(-c3cn[nH]c3)c2)c2ccccc2[nH]1
60 µM | > 10 µM | > 60 µM | 0.18 µM | – | – | Cn1cc(-c2cccc(Oc3cc(=O)[nH]c4ccccc34)c2)cn1
60 µM | > 10 µM | 17 µM | 0.63 µM | – | – | O=c1cc(Oc2cccc(-c3ccccc3)c2)c2ccccc2[nH]1
– | 3.78 µM | 6 µM | 0.14 µM | – | – | O=c1cc(Oc2cccc(NCc3ccccc3)c2)c2ccccc2[nH]1
– | 11 µM | 5 µM | 0.13 µM | – | – | COC[C@@H]1CCCN1CCNc1ccc(-c2cccc(Oc3cc(=O)[nH]c4ccccc34)c2)cc1
10.5 µM | – | 7 µM | 0.72 µM | – | – | CN(C)CCCN1CCN(c2cccc(Oc3cc(=O)[nH]c4ccccc34)c2)CC1
10 µM | – | 4.2 µM | 0.16 µM | – | – | CC(C)(C)CNc1ncccc1CNc1cccc(Oc2cc(=O)[nH]c3ccccc23)c1
60 µM | – | 12 µM | 0.42 µM | – | – | CC(C)(C)OC(=O)Nc1ccc(CNc2cccc(Oc3cc(=O)[nH]c4ccccc34)c2)cn1
– | 9.54 µM | – | – | 11 µM | 4 µM | O=c1cc(Oc2cccc(NCc3ccc(F)nc3)c2)c2ccccc2[nH]1 [drawing 208]
– | – | – | – | 50 µM | 13 µM | O=c1cc(Oc2cccc(NCc3ccc(F)nc3)c2)c2ccccc2[nH]1 [drawing 218]
> 60 µM | 4.15 µM | > 60 µM | – | – | – | O=c1cc(Oc2cccc(OCc3ccccc3)c2)c2ccccc2[nH]1 [drawing 351]
– | 10.3 µM | 0.62 µM | 0.37 µM | – | – | CN1CCN(c2cccc(Oc3cc(=O)[nH]c4ccccc34)c2)CC1 [drawing 359]
– | 8.74 µM | > 60 µM | 9.7 µM | – | – | O=c1cc(Oc2ccccn2)c2ccccc2[nH]1 [drawing 389]

SMILES | IC50 ([1]; Homo sapiens, 72 h) | IC50 (PI3Kα) | IC50 ([2]; Homo sapiens, LNCaP, 72 h) | IC50 (human TOR (FLAG-TOR)) | IC50 [1] | IC50 [2]
CN1CCC(N(C)c2cccc(-c3cccc(Oc4cc(=O)[nH]c5ccccc45)c3)c2)CC1 | – | 8.31 µM | 3 µM | 0.33 µM | – | –
